The text below walks through data of patent US20250092015A1, “A 6-substituted Chiral Pure Difluoropiperidine Quinazoline Derivative And Its Preparation Method” (WEISHANG (SHANGHAI) BIO-PHARMACEUTICAL CO., LTD., priority 2022, published 2025).

Read-outs that look alike come from different tables or passages of the source.

In series [1] the test system is Human glioma tumor cell with EGFRVIII mutation. Put plainly: CellTiter-Glo (CTG) cell viability, glioma cells. Format: cell-based. To be noted: 72 h of drug addition, read-out: Growth inhibition IC50, human glioma tumor cell with EGFRVIII mutation. How it is done: (§1) Cell viability of tumor cells and gliomas with EGFR-activated mutant (Exon 19 Del, PC-9 cell; Exon 21 L858R, H3255 cell) protein was detected using CellTiter-Glo (CTG) assay; approximately 5000 cells were placed in each blank of the 96-well plate. The diluted compound was added proportionally after 16 h and equilibrated at room temperature for 30 min after 72 h of drug addition. 100 µL of CellTiter-Glo reagent was added to each well and mixed well on an orbital shaker for 2 min to induce cell lysis. The plate was incubated at room temperature for 10 min to stabilize the luminous signal. The luminous signal was recorded on a TECAN Infinite M1000 Pro instrument.

Series [2] deals with PC-9luc tumor cells (non-small cell lung cancer with Exon 19 Del). Put plainly: Survival in mouse model of intracranial meningeal metastasis. Format: in vivo. The following applies: PO, BID, PC-9luc seeded into brain of mice, FIG. 3. How it is done: PC-9luc tumor cells (non-small cell lung cancer with Exon 19 Del, about 2×10^5 cells) were seeded into the brain of mice, and administration was started approximately 11 days after tumor growth. Group 1 was the control group (8 mice), without any medication. Group 2 received Iressa (8 mice), 15 mg/kg, PO. Group 3 received (R)-6-((3,3-difluoro-1-methylpiperidin-4-yl)oxy)-N-(3-ethynyl-2-fluorophenyl)-7-methoxyquinazoline-4-amine monotherapy group (8 mice), 10 mg/kg, PO, BID. Group 4 received (R)-6-((3,3-difluoro-1-methylpiperidin-4-yl)oxy)-N-(3-ethynyl-2-fluorophenyl)-7-methoxyquinazoline-4-amine monotherapy group (8 mice), 3 mg/kg, PO, BID.

Series [3] relates to H3255 tumor cell (EGFR L858R mutation). Put plainly: CellTiter-Glo (CTG) cell viability, H3255 cells. Format: cell-based. The following applies: Homo sapiens, NCI-H3255, 72 h of drug addition, read-out: Growth inhibition IC50, H3255 tumor cell (EGFR L858R mutation). How it is done: as §1
Series [4] has as its target EGFR enzyme (Homo sapiens, UniProt P00533). Put plainly: EGFR enzyme ADP-Glo mechanism of action study (ATP titration). Format: biochemical. To be noted: PolyE4Y1 substrate, ATP diluted from 600 uM, FIG. 4. How it is done: In the study of the mechanism of action of (R)-6-((3,3-difluoro-1-methylpiperidin-4-yl)oxy)-N-(3-ethynyl-2-fluorophenyl)-7-methoxyquinazoline-4-amine prepared by the present disclosure to inhibit EGFR, EGFR enzyme was added to a solution of PolyE4Y1 on a 384-well plate from 6 concentrations diluted at an equal ratio of 0.4 nM (2-fold) to 0.0125 nM and 0 concentration, and incubated for 15 min. ATP was added at 7 concentrations diluted at an equal ratio of 600 uM (2-fold) for reaction for 60 min, and then ADP-Glo reagent and detection reagent were added for 40 min to measure RLU signal. […] The benefits of this mechanism of action are obvious, with minimal side effects and anti-drug resistance.
(In ADP-Glo the light output rises with the ADP produced.)

Series [5] concerns PC-9 tumor cell (EGFR Del 19 mutation). Put plainly: CellTiter-Glo (CTG) cell viability, PC-9 cells. Format: cell-based. To be noted: Homo sapiens, 72 h of drug addition, read-out: Growth inhibition IC50, PC-9 tumor cell (EGFR Del 19 mutation). How it is done:
as §1

A short description of series [6]: Rate of crossing blood-brain barrier in rats. Format: in vivo. To be noted: 4 h after administration. How it is done: To determine whether (R)-6-((3,3-difluoro-1-methylpiperidin-4-yl)oxy)-N-(3-ethynyl-2-fluorophenyl)-7-methoxyquinazoline-4-amine prepared by the present disclosure is able to cross the blood-brain barrier (BBB), the test compound was administered to rats. After 4 h of administration, the rats were killed and blood and brain tissues were collected to test the compound concentration. Brain osmosis is defined as the ratio of the concentration of compounds in brain tissue to the concentration in plasma. The rate of crossing blood-brain barrier is the ratio of free drug concentration in brain tissue to free drug concentration in plasma. P-glycoprotein is an efflux protein at the blood-brain barrier that excretes P-glycoprotein substrate from the brain. Breast cancer resistance protein is an efflux protein at the blood-brain barrier that excretes […].

The target in series [7] is P-glycoprotein (Homo sapiens, UniProt P08183). The series is described as follows: P-glycoprotein efflux substrate test. The class given is in vitro ADME.
Chain of P-glycoprotein (P08183 whole entry): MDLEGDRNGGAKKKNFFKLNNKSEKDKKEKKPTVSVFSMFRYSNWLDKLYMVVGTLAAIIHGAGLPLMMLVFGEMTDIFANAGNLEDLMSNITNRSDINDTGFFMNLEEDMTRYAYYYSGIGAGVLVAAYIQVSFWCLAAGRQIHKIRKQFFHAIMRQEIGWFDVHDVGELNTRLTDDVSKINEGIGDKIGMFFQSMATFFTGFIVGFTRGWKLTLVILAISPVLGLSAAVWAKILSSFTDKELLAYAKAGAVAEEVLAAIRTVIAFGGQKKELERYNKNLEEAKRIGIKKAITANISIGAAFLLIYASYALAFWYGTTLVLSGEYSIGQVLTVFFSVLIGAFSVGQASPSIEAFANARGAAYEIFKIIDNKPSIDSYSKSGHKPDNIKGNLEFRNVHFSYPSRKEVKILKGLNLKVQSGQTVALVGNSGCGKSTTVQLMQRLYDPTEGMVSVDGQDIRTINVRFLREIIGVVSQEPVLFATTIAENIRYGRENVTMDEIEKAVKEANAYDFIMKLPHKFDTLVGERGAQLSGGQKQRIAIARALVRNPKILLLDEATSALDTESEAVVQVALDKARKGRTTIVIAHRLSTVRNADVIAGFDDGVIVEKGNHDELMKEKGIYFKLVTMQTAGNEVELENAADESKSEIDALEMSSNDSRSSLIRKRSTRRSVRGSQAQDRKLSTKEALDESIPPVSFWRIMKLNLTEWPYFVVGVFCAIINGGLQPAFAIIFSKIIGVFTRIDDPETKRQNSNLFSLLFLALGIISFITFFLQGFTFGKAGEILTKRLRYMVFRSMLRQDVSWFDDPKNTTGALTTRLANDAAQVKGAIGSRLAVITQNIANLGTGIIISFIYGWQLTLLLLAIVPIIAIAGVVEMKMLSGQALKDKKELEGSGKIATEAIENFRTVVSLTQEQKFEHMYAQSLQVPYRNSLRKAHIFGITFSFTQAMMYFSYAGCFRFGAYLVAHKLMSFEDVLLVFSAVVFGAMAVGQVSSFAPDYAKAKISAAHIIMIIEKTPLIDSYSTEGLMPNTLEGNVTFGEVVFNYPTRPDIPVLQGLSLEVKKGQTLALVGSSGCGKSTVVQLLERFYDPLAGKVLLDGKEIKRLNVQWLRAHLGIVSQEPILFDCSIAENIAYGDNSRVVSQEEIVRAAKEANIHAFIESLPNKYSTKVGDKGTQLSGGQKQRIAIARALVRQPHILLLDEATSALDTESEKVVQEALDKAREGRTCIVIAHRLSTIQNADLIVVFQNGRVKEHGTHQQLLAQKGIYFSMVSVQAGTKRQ
Series [8] deals with patient's primary tumor tissue GBM (EGFRV3 mutated brain tumor). Put plainly: Survival in mouse intracranial PDX model. Format: in vivo, mice. To be noted: 30 mg/kg, PO, BID, treatment more than 50 d, FIG. 2. On the procedure:
The patient's primary tumor tissue GBM (brain tumor, about 50,000 cells) was seeded into the brain of mice. Administration began after the tumor grew for about 10 d and treatment lasted for more than 50 d. In the pharmacodynamic study of tumor transplanted animal model with EGFRV3 mutated brain tumor from patient's primary tumor tissue in mice, Group 1 was the control group (8 mice) without any medication. Group 2 received (R)-6-((3,3-difluoro-1-methylpiperidin-4-yl)oxy)-N-(3-ethynyl-2-fluorophenyl)-7-methoxyquinazoline-4-amine monotherapy group (8 mice), 30 mg/kg, PO, BID.

A short description of series [9]: Pharmacokinetic study of rats (bioavailability). Format: in vivo. To be noted: rat, blood, 1-2 mg/kg iv vs 2-40 mg/kg PO. On the procedure:
In the pharmacokinetic study of rats, Group 1 (3 rats) was administrated with 1-2 mg/kg, iv, and Group 2 (3 rats) was administrated with 2-40 mg/kg, PO. Blood was sampled at 7 time points (0.25, 0.5, 1, 2, 4, 8 and 16 hours points) to measure the concentration of the quinazoline derivatives (I) prepared by the present disclosure in blood and calculate the peak area and half-life. Bioavailability is calculated as (peak area of oral drug/oral dose)/(peak area of intravenous drug/intravenous dose)×100%.

Series [10] concerns the target T1, Breast cancer resistance protein (Homo sapiens, UniProt Q9UNQ0).
T1 sequence (Q9UNQ0 1-655): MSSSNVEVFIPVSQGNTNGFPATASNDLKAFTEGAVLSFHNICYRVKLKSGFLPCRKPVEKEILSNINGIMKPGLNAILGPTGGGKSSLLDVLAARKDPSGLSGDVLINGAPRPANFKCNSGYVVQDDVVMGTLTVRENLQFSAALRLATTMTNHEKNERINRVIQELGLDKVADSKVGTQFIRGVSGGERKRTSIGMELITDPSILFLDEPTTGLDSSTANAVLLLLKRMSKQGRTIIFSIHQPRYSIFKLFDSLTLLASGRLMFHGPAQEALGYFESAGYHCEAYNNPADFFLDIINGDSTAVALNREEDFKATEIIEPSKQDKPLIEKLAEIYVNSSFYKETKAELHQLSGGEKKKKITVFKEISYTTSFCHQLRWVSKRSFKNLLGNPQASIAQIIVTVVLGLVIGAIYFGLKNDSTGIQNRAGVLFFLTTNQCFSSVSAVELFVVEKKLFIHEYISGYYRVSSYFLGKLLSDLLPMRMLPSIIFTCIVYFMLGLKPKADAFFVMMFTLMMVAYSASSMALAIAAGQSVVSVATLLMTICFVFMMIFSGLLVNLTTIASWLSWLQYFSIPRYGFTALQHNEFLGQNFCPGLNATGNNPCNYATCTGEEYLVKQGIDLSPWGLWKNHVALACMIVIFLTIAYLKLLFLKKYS
The series is described as follows: Breast cancer resistance protein efflux substrate test. The class given is in vitro ADME.

[11] abbreviates: listed as -1-3,3-difluoro-1-methylpiperidin-4-yl)oxy)-N-(3-ethynyl-2-fluorophenyl)-7-metho.

Chain of EGFR enzyme (P00533 25-1210): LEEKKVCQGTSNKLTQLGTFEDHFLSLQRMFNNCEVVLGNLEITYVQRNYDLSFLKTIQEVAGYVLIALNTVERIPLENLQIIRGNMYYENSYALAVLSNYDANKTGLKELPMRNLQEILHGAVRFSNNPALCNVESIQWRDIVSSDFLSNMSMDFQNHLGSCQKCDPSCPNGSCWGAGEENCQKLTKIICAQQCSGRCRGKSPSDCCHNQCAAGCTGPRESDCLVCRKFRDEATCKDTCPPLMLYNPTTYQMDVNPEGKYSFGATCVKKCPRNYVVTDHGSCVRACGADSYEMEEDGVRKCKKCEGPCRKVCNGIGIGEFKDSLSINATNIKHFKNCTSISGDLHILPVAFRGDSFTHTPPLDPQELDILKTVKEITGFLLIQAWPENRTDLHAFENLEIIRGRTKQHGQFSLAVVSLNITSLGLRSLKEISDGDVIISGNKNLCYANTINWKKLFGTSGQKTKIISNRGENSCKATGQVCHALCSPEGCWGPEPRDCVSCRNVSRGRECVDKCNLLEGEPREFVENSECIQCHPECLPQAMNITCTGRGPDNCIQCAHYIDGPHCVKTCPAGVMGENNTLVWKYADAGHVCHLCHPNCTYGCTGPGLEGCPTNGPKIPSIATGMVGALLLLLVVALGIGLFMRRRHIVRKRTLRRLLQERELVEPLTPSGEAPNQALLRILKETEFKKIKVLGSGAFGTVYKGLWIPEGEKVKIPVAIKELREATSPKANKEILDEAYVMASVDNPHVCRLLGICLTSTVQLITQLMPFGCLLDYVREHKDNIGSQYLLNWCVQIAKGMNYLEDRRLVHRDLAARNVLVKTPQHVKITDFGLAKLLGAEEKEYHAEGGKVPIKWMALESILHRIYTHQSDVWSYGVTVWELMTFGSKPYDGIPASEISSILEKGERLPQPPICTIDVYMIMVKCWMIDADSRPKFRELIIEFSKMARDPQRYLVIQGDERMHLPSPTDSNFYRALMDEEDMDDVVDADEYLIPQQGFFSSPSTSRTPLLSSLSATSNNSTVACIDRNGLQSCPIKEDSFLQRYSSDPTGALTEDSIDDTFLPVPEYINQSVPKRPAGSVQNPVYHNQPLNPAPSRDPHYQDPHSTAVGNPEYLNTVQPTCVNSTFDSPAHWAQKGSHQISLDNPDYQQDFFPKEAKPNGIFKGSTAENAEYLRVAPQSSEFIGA

For `C#Cc1cccc(Nc2ncnc3cc(OC)c(O[C@@H]4CCN(C)CC4(F)F)cc23)c1F` [(R)-6-((3,3-difluoro-1-methylpiperidin-4-yl)oxy)-N-(3-ethynyl-2-fluorophenyl)-7-methoxyquinazoline-4-amine], the values for the IC50 in [1], in series [3] and in series [5] were 10 nM, 2 nM and 8 nM, respectively. For the same compound, the Survival entry is “significantly improved” in series [2] (Group 3, 10 mg/kg) and “significantly improved” in series [2] (Group 4, 3 mg/kg). In [4], the “Mechanism of action of EGFR inhibition” value is on record as “non-ATP competitive”. Moreover, the “Rate of crossing blood-brain barrier (ratio of free drug concentration in brain tissue to free drug concentration in plasma)” value in [6] is on record as more than 50%. The Kp at 4 h in series [6] (rat, brain tissue and plasma (free drug concentrations), read-out: Rate of crossing blood-brain barrier (ratio of free drug concentration in brain tissue to free drug concentration in plasma)) was more than 0.5. Moreover, the P-glycoprotein efflux substrate result in [7] is on record as “No”; in series [7] (setting [11]), “not P-glycoprotein substrate”. Further, the “Survival compared to control group” value in [8] was “significantly prolonged”. Further, the bioavailability (commonly the share of a dose that reaches the circulation, judged against a reference dose that is usually intravenous) in [9] is more than 35%. The “Breast cancer resistance protein efflux substrate” value was “No” in [10] and “not P-glycoprotein substrate or breast cancer resistance protein efflux substrate” in series [10] (setting [11]).
